According to ChEMBL document CHEMBL3217749, “Design and synthesis of novel pyranone-based insulin sensitizers exhibiting in vivo hepatoprotective activity” (2013):
Activity calls are given as the source filed them. The rule behind the calls is not given here.

Columns and labels:
3T3-L1 [1] = assay: Inhibition of chronic insulin-stimulated insulin resistance in differentiated mouse 3T3L1 cells assessed as 2-deoxy-D-[3H]-glucose uptake after 24 hrs by scintillation counting analysis; assay type: functional, cell-based
3T3-L1 [2] = assay: Induction of insulin-stimulated 2-deoxy-D-[3H]-glucose uptake in differentiated mouse 3T3L1 cells at 10 uM after 24 hrs by scintillation counting analysis; assay type: functional, cell-based
[3] = Upregulation of FAS protein expression in differentiated mouse 3T3L1 cells after 7 days by western blot analysis; assay type: functional, cell-based; conditions: 3T3-L1
[4] = Upregulation of aP2 protein expression in differentiated mouse 3T3L1 cells after 7 days by western blot analysis; assay type: functional, cell-based; conditions: 3T3-L1
3T3-L1 [5] = assay: Induction of adipogenesis in mouse 3T3L1 cells assessed as lipid accumulation at 10 uM on day 8 by oil Red O staining; assay type: functional, cell-based
Mus musculus [6] = assay: Hepatoprotective activity against thioacetamide-induced liver toxicity in Swiss albino mouse assessed as protection against histological damage at 20 mg/kg administered for 7 days started 1 day after thioacetamide challenge measured on day 8 by hematoxylin-eosin staining; assay type: functional, organism-based; set-up: dose 20 mg/kg
Mus musculus [7] = assay: Hepatoprotective activity against thioacetamide-induced liver toxicity in Swiss albino mouse assessed as protection in serum total bilirubin activity at 20 mg/kg administered for 7 days started 1 day after thioacetamide challenge measured on day 8; assay type: functional
Mus musculus [8] = assay: Hepatoprotective activity against thioacetamide-induced liver toxicity in Swiss albino mouse assessed as protection in serum ALP activity at 20 mg/kg administered for 7 days started 1 day after thioacetamide challenge measured on day 8; assay type: functional
Mus musculus [9] = assay: Hepatoprotective activity against thioacetamide-induced liver toxicity in Swiss albino mouse assessed as protection in serum AST activity at 20 mg/kg administered for 7 days started 1 day after thioacetamide challenge measured on day 8; assay type: functional
Mus musculus [10] = assay: Hepatoprotective activity against thioacetamide-induced liver toxicity in Swiss albino mouse assessed as protection in serum ALT activity at 20 mg/kg administered for 7 days started 1 day after thioacetamide challenge measured on day 8; assay type: functional
Mus musculus [11] = assay: Hepatoprotective activity against thioacetamide-induced liver toxicity in Swiss albino mouse assessed as protection in serum AST activity at 20 mg/kg, po administered for 7 days started 1 day after thioacetamide challenge measured on day 8; assay type: functional, organism-based; set-up: dose 20 mg/kg
Mus musculus [12] = assay: Hepatoprotective activity against thioacetamide-induced liver toxicity in Swiss albino mouse assessed as protection in serum ALT activity at 20 mg/kg, po administered for 7 days started 1 day after thioacetamide challenge measured on day 8; assay type: functional, organism-based; set-up: dose 20 mg/kg
Mus musculus [13] = assay: Hepatoprotective activity against thioacetamide-induced liver toxicity in Swiss albino mouse assessed as protection against histological damage at 20 mg/kg, po administered for 7 days started 1 day after thioacetamide challenge measured on day 8 by hematoxylin-eosin staining; assay type: functional, organism-based; set-up: dose 20 mg/kg
Mus musculus [14] = assay: Hepatoprotective activity against thioacetamide-induced liver toxicity in Swiss albino mouse assessed as protection in serum total bilirubin activity at 20 mg/kg, po administered for 7 days started 1 day after thioacetamide challenge measured on day 8; assay type: functional, organism-based; set-up: dose 20 mg/kg
Mus musculus [15] = assay: Hepatoprotective activity against thioacetamide-induced liver toxicity in Swiss albino mouse assessed as protection in serum ALP activity at 20 mg/kg, po administered for 7 days started 1 day after thioacetamide challenge measured on day 8; assay type: functional, organism-based; set-up: dose 20 mg/kg

Row | Compound | Inhibition activity (active/not active) (3T3-L1 [1]) | Activity (3T3-L1 [2]) | Activity [3] | Activity [4] | Activity (3T3-L1 [5]) | Activity (Mus musculus [6]) | Activity (Mus musculus [7]) [%] | Activity (Mus musculus [8]) [%] | Activity (Mus musculus [9]) [%] | Activity (Mus musculus [10]) [%] | Activity (Mus musculus [11]) [%] | Activity (Mus musculus [12]) [%] | Activity (Mus musculus [13]) | Activity (Mus musculus [14]) [%] | Activity (Mus musculus [15]) [%]
1 | COc1ccc(-c2cc(N(C)CCOC(=O)Cc3ccc(O)cc3)c(C#N)c(=O)o2)cc1 | inactive | Active | Active | Active | Active | Active | 100 | 100 | 60 | 92 |  |  |  |  | 
2 | SILYMARIN |  |  |  |  |  |  |  |  |  |  | 95 | 93 | Active | 100 | 100
3 | CN(CCOc1ccc(CC2SC(=O)NC2=O)cc1)c1ccccn1 (centres undefined) | Active | Active | Active | Active |  |  |  |  |  |  |  |  |  |  | 
4 | CN(CCBr)c1cc(-c2ccc(Cl)cc2)oc(=O)c1C#N | Active | Active | Active | inactive | Active | Active | 100 | 100 | 87 | 100 |  |  |  |  | 
5 | COc1ccc(-c2cc(N(C)CCN3C(=O)SC(Cc4cccc(O)c4)C3=O)c(C#N)c(=O)o2)cc1 (centres undefined) | inactive | Active | Active | Active | Active | Active | 100 | 100 | 75 | 89 |  |  |  |  | 
